Columns and labels:
[1] = system: REV-ERBβ LBD cobound to heme; test: Crystal structures of REV-ERBβ LBD cobound to heme and NCoR ID peptides; type: binding, human; conditions: ID1 PDB 6WMQ, ID2 PDB 6WMS
Method: After overnight incubation at 4°C with peptide, REV-ERBβ LBD cobound to heme and peptide was buffer-exchanged into Hepes gel filtration buffer to remove unbound and concentrated to 15 mg/ml (ID2-bound) or 5 mg/ml (ID1-bound). Buffer-exchanged proteins were screened for conditions that produced crystals using the NR LBD (Molecular Dimensions), Structure (Molecular Dimensions), Index (Hampton Research), and PEG/Ion (Hampton Research) kits and sitting drop method (1-μl reservoir solution added to 1-μl drop of protein solution) at 22°C. REV-ERBβ LBD crystals cobound to heme and NCoR ID2 grew in 0.2 M Mg formate dihydrate and 20% (w/v) PEG 3350 (PEG/Ion), and REV-ERBβ LBD crystals cobound to heme and NCoR ID1 grew in 2.0 M ammonium sulfate, 0.1 M Na Hepes (pH 7.5), and 2% PEG 400 (Structure). Crystals in their respective condition were supplemented with 10% glycerol and flash-cooled in liquid nitrogen. X-ray diffraction data were collected at the Advanced Light Source synchrotron (Lawrence Berkeley National Laboratory) in 180 images with a 1° rotation per image. Data were processed, indexed, and scaled using Mosflm and Scala in CCP4 (Collaborative Computational Project No. 4) ([32], [33]). […]
Structures were aligned, and RMSD values were calculated in PyMOL using the “align” command with cycles set to 0 (no outliers were removed). […]

REV-ERBβ LBD / NCoR RID = test: Chemical cross-linking mass spectrometry (XL-MS); type: binding; conditions: apo LBD and heme-bound LBD ± RID; DSSO
Method: Apo or heme-bound REV-ERBβ LBD and NCoR RID protein samples were cross-linked in Hepes gel filtration buffer [25 mM Hepes (pH 7.5) at room temperature, 50 mM NaCl, and 0.5 mM TCEP]. Non–cross-linked negative controls were generated using the same procedure without the addition of DSSO (Thermo Fisher Scientific). Samples included 4 μM apo LBD with or without 2 μM RID and 4 μM heme-bound LBD with or without 2 μM RID; complexes were preincubated 1 hour on ice. Reactions were initiated by spiking DSSO in DMSO at a final concentration of 600 μM in 50-μl solutions. The final molar ratio of cross-linker:protein was 100:1. The reactions were incubated at 25°C for 45 min before being quenched by the addition of tris (pH 8.0) to a final concentration of 50 mM. Each cross-link reaction was done in triplicate, and the reaction replicates were pooled after quenching. Samples (10 μl) were loaded for SDS-PAGE analysis with Coomassie staining to confirm the presence of cross-linked protein. The remaining cross-linked and non–cross-linked samples were then acetone-precipitated at −20°C overnight, and the protein was pelleted by centrifugation at 16,000 relative centrifugal force (rcf) for 5 min at 4°C. After decanting, the pellets were dried for 15 min at room temperature before being resuspended in 12.5 μl of resuspension buffer [50 mM ammonium bicarbonate and 8 M urea (pH 8.0)]. […]

## CC[C@H](C)[C@H](NC(=O)[C@H](CC(=O)O)NC(=O)[C@H](CCC(=O)O)NC(=O)[C@H](CC(C)C)NC(=O)CNC(=O)[C@H](CC(C)C)NC(=O)[C@H](CC(N)=O)NC(=O)[C@H](CO)NC(=O)[C@H](C)NC(=O)[C@@H]1CCCN1C(=O)[C@H](CC(=O)O)NC(C)=O)C(=O)N[C@H](C(=O)N[C@@H](CCCNC(=N)N)C(=O)N[C@@H](CCCCN)C(=O)N[C@@H](C)C(=O)N[C@@H](CC(C)C)C(=O)N[C@@H](CCSC)C(=O)NCC(=O)N[C@@H](CO)C(=O)N[C@@H](Cc1ccccc1)C(=O)N[C@@H](CC(=O)O)C(=O)N[C@@H](CC(=O)O)C(=O)N[C@@H](CCCCN)C(N)=O)[C@@H](C)CC [NCoR ID2 peptide]
[1]
  interaction of bound ID peptide in crystal structure (in words): formed electrostatic interactions with the conserved charge clamp residue K421 on helix 3

## Ac-RTHRLITLADHICQIITQDFARN-NH2 [NCoR ID1 peptide]
[1]
  interaction of bound ID peptide in crystal structure (in words): formed electrostatic interactions with the conserved charge clamp residue K421 on helix 3

B1: WT RID: mouse NCoR RID (residues 1942 to 2208 in the X50 splice variant) (protein, UniProt Q60974 1942-2208, looked up, fragment)
chain: TITAANFIDVIITRQIASDKDARERGSQSSDSSSSLSSHRYETASDAIEVISPASSPAPPQEKPQAYQPDMVKANQAENESTRQYEGPLHHYRSQQESPSPQQQPPLPPSSQSEGMGQVPRTHRLITLADHICQIITQDFARNQVPSQASTSTFQTSPSALSSTPVRTKTSSRYSPESQSQTVLHPRPGPRVSPENLVDKSRGSRPGKSPERSHIPSEPYEPISPPQGPAVHEKQDSMLLLSQRGVDPAEQRSDSRSPGSISYLPSF
modifications: X50 splice variant
REV-ERBβ LBD / NCoR RID
  effect of RID on LBD-LBD cross-links: enhanced LBD-LBD cross-links

Source: PMC7840129, “Structural basis for heme-dependent NCoR binding to the transcriptional repressor REV-ERBβ” (Science Advances, 2021)
